For 20 compounds, IC50 results are on record in PubChem BioAssay AID1159559 (GlaxoSmithKline (GSK), 2015).

What is called IC50 is the concentration needed to halve the response being measured.

This assay has as its system T. cruzi Tulahuen in NIH-3T3, beta-gal fluorescence, 4 d. The assay is described as follows: T. cruzi intracellular growth inhibition, cell-based (AID 1159559).

The structures appear in SMILES notation. Calls of active or inactive are those of the source.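 The calls were made as follows: active = compounds whose IC50 against parasite growth in infected mouse cells is below 50000 nM; inactive = the rest.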

As for `Cc1ccc(NC(=O)c2ccnc(N3CCCC3)c2)cc1-c1cc(C(N)=O)ccc1C`, the half-maximal inhibitory concentration (IC50) was 6300 nM.

`O=C(Cc1ccc2c(c1)CCC2)Nc1n[nH]c(-c2ccccn2)n1`: the IC50 was 10000 nM.

Regarding `COc1cccc(CCNC(=O)C(c2cn[nH]c2)N2CCN(c3ccc(Cl)cc3)CC2)c1` (stereo not given), the IC50 is 20 nM.

For the compound `O=C1CN(C(=O)c2cccc(Nc3ncc(-c4ccc5c(c4)OCO5)cn3)c2)CCN1`, the IC50 was 1600 nM.

As to `CC(=O)Nc1ccc(-c2ccnc(Nc3cccc(C#N)c3)n2)cc1`, the 50% inhibitory concentration (IC50) was 6300 nM.

Turning to `CC1CCCN(S(=O)(=O)c2ccc(C(=O)Nc3nc(-c4ccccn4)cs3)cc2)C1` (stereo not given), the concentration for half-maximal inhibition (IC50) was 400 nM.

For `N#CN1CC[C@@H](NC(=O)Nc2ccccc2Oc2ccccc2)C1`, the half-inhibitory concentration (IC50) is 5000 nM.

With `COc1ccc2ncc(F)c(CCN3CC[C@@H](NC(=O)c4cc5c(s4)CCC5)[C@@H](O)C3)c2n1`, the concentration for half-maximal inhibition (IC50) is 160 nM.

Regarding `CCC1Oc2cc(S(=O)(=O)N(C)CC(=O)N3CCc4ccccc4C3)c(C)cc2NC1=O` (stereo not given), the IC50 was 200 nM.

With `O=c1ccn(-c2ccc([N+](=O)[O-])cc2Cl)c2ccc(F)cc12`, the IC50 is 1600 nM.

In the case of `CC(C)CC(=O)Nc1cc(C2CC2)nn1-c1nc2c(c(=O)[nH]1)CCCC2`, the 50% inhibitory concentration (IC50) is 790 nM.

Regarding `CN(Cc1cccnc1)Cc1ccc(N2CCN(C(=O)C3(c4ccc(Cl)cc4)CC3)CC2)nc1`, the concentration for half-maximal inhibition (IC50) was 500 nM.

As to `Cc1ccc(C)c(-n2nnnc2Sc2nc([N+](=O)[O-])nn2C)c1`, the IC50 is 500 nM.

Turning to `COc1cccc(S(=O)(=O)Nc2ccc3c(c2)CC(N2CCC(NC(=O)C4CC4)CC2)C3)c1` (stereo not given), the IC50 was 40000 nM.

As for `COc1ccc2ncc(F)c(NC(=O)C3(O)CCC(NCc4ccc5c(c4)OCCO5)CC3)c2n1` (stereo not given), the half-maximal inhibitory concentration (IC50) was 160 nM.

For `CCOC(=O)c1noc(N)c1-c1ccccc1`, the IC50 is > 50000 nM (inactive).

Consider `CCOc1ccc2nc(NC(=O)c3ccc([N+](=O)[O-])s3)sc2c1`, for which the concentration for half-maximal inhibition (IC50) was 1600 nM.

Take `Cc1cccc(N2CCCN(Cc3c[nH]c4ccccc34)CC2)n1`: the IC50 was 320 nM.

On to `Cc1cc(NC(=O)C2CCCCC2)n(-c2nc3c(c(=O)[nH]2)CCC3)n1`, for which the IC50 is 320 nM.

Turning to `O=C(Cc1ccccc1)Nc1[nH]nc2sc(C(=O)NC3CCCC3)cc12`, the IC50 is 7900 nM.
